The values that follow come from patent publication US7972793B2, “Methods and compositions for the treatment of psychotic disorders through the identification of the SULT4A1-1 haplotype” (Suregene, LLC, priority 2009, dated 2011).

One assay has as its system CATIE Caucasian subjects. Put plainly: Rate of hospitalization due to exacerbation of psychosis in CATIE by SULT4A1-1 status. It is filed as in vivo, human. To be noted: CATIE Phases 1, 2 and/or 3. The text has this:
For this analysis, the inventors assigned a dichotomous value (positive or negative) for hospitalization status to subjects in each phase of the trial based on only the first hospitalization event for a given patient in that phase.

In assay [1] the test system is CATIE African American schizophrenia patients. Put plainly: CATIE drug response: change in total PANSS (LOCF), segmented by SULT4A1-1 status, African Americans. It is filed as in vivo, human. The method, then:
The design of the CATIE study has been described in detail by others (Lieberman et al., 2005; Stroup et al., 2003). […] A total of 738 subjects consented to provide DNA for genetic study. […] Retrospective genetic analyses, judged to be exempt from human studies requirements by an IRB, were conducted in the current study. All tested patients were studied using well established clinical endpoints comparing baseline, intermediate, and last observation carried forward (LOCF) for the PANSS scores using CATIE data. […] To remove time on drug as a variable for the CATIE trial, analysis was limited to only those patients who were randomized to a different drug following the initial washout period (drug switchers).

Assay [2] deals with CATIE Caucasian schizophrenia patients. Put plainly: Time to discontinuation for all causes in the CATIE study. It is filed as in vivo, human. The text has this:
The primary endpoint for the CATIE study was time to discontinuation for all causes (Lieberman et al., 2005). Thus the inventors evaluated the effect of SULT41-1 status on this important parameter.

Assay [3] has the same test system. Nature of the assay: CATIE Phase 1 drug response: change in total PANSS (LOCF), drug switchers, segmented by SULT4A1-1 status. The class given is in vivo, human. To be noted: for ≦−20% (number of individuals with this percent change in total PANSS; responders) / ≧−20% (number of individuals with this percent change in total PANSS; non-responders): CATIE Caucasians, LOCF; for Non Responder (number) / Responder (number): Table 16, 20% decrease in PANSS threshold, SULT4A1-1 positive group (sign not given). An excerpt:
There are several different metrics for quantifying response in clinical trials of antipsychotic medications. The most commonly used psychometric instrument is the Positive and Negative Syndrome Scale (PANSS), a 30-item semi-quantitative instrument scored by clinical professionals (Kay et al., 1987). The greater the decrease in PANSS score, the better the clinical response. The most direct measure of clinical response is absolute change in PANSS score. In addition to absolute change, the improvement is often reported as a percentage change from baseline PANSS score.
A decrease of at least 20% in total PANSS is one commonly used threshold for response (Leucht et al., 2009).
The design of the CATIE study has been described in detail by others (Lieberman et al., 2005; Stroup et al., 2003). […] A total of 738 subjects consented to provide DNA for genetic study. […] Retrospective genetic analyses, judged to be exempt from human studies requirements by an IRB, were conducted in the current study.
All tested patients were studied using well established clinical endpoints comparing baseline, intermediate, and last observation carried forward (LOCF) for the PANSS scores using CATIE data. LOCF analysis is a commonly used clinical endpoint for clinical trials for neuropsychiatric drugs, with changes in PANSS scores of between negative 20% and negative 30% used as typical endpoints to indicate clinically significant response (Leucht et al., 2009). To remove time on drug as a variable for the CATIE trial, analysis was limited to only those patients who were randomized to a different drug following the initial washout period (drug switchers).
As mentioned previously, the mean change in absolute or percent PANSS provides an important measure of efficacy in patients undergoing antipsychotic treatments. Indeed, many pivotal trials in the psychosis field used absolute and/or percentage change in PANSS Score as the primary endpoint (Leucht et al., 2009). […] Therefore, in addition to examining a categorical definition of clinically significant response, the inventors determined the impact of segmentation by SULT4A1-1 status on the quantitative measure of clinical improvement—delta PANSS.

Assay [4] deals with patients, populations not segmented by SULT4A1-1 status. To be noted: meta-analysis, Leucht et al. (2009); negative = greater reduction in PANSS; cited from earlier work.
A further assay has as its system CATIE patients. Put plainly: Kaplan-Meier survival (no hospitalization event) analysis, SULT4A1-1 negative vs positive. It is filed as in vivo, human. To be noted: FIG. 8. The method, then:
A Kaplan-Meier survival analysis was performed to determine whether there was a difference between the survival (hospitalization) rates for the SULT4A1-1 negative and SULT4A1-1 positive patient populations treated with each of the atypical antipsychotics. Survival plots model the fraction of the population that survived (i.e., no hospitalization event) as a function of time.

The test system of assay [5] is patients, unsegmented populations. To be noted: Meta-analysis, Leucht et al. (2009); cited from earlier work.
Assay [6] shares this test system. To be noted: first generation antipsychotics; Davis et al. (2003); cited from earlier work.
Assay [7] relates to CATIE Phase I non-responders. To be noted: CATIE Phase II, LOCF; for Responders (number): decrease PANSS ≧ 20%.

The structures appear in SMILES notation. Read-outs that look alike come from different tables or passages of the source. Marks after values point to notes of the source that are not given here.

As to `OCCN1CCN(CCCN2c3ccccc3Sc3ccc(Cl)cc32)CC1` [Perphenazine], the “HOSP (number of subjects hospitalized)” value in the assay with CATIE Caucasian subjects (SULT4A1-1 Positive) was 1; in the assay with CATIE Caucasian subjects (SULT4A1-1 negative) it was 9; with CATIE Caucasian subjects (Unsegmented), 10. For the same molecule, the results for the “≦−20% (number of individuals; responders)” value in assay [1] (SULT4A1-1 Negative) and in [1] (SULT4A1-1 Positive) were 10 and 0, respectively. In addition, the “≧−20% (number of individuals; non-responders)” value in assay [1] (SULT4A1-1 Negative) is on record as 27; in assay [1] (SULT4A1-1 Positive), 2. Also, in assay [2] (SULT4A1-1 Positive), the “Time to discontinuation, mean time in months” value (from here on “Time to discontinuation”) is reported as 7.6** Months. For the same molecule, the “≦−20% (number of individuals with this percent change in total PANSS; responders)” value is 16 in assay [3] (SULT4A1-1 Negative) and 5 in [3] (SULT4A1-1 Positive). The “≧−20% (number of individuals with this percent change in total PANSS; non-responders)” value in assay [3] (SULT4A1-1 Negative) amounted to 47; in assay [3] (SULT4A1-1 Positive), 9. In addition, the “Non Responder (number)” value in [3] stood at 9. Besides, the “Responder (number)” value in assay [3] worked out at 5.
Regarding `O=C1Cc2cc(CCN3CCN(c4nsc5ccccc45)CC3)c(Cl)cc2N1` [Ziprasidone], the “HOSP (number of subjects hospitalized)” value was determined as 2 with CATIE Caucasian subjects (SULT4A1-1 Positive), 11 in the assay on CATIE Caucasian subjects (SULT4A1-1 negative) and 13 in the assay on CATIE Caucasian subjects (Unsegmented). Besides, in assay [4], the “Effect Size vs. Placebo” value is −0.48. In addition, in the assay with CATIE patients, the “Difference between survival (no hospitalization) rates of SULT4A1-1 negative and SULT4A1-1 positive patients” value is listed as “not statistically significant”. Also, the figures for the “Mean Difference in Total PANSS Score, Olanzapine vs. labelled drug” value in [5], in assay [3] (CATIE SULT4A1-1 −) and in [3] (CATIE unsegmented) were −8.3, −2.1 and −4.9, respectively. Moreover, the figures for the “≦−20% (number of individuals; responders)” value in assay [1] (SULT4A1-1 Negative) and in [1] (SULT4A1-1 Positive) were 4 and 0, respectively. Moreover, the “≧−20% (number of individuals; non-responders)” value amounted to 22 in assay [1] (SULT4A1-1 Negative) and 3 in assay [1] (SULT4A1-1 Positive). Further, in assay [2] (SULT4A1-1 Negative), the “Time to discontinuation” value is 8.2*** Months. Besides, the “≦−20% (number of individuals with this percent change in total PANSS; responders)” value was 6 in assay [3] (SULT4A1-1 Negative) and 3 in [3] (SULT4A1-1 Positive). The entries for the “≧−20% (number of individuals with this percent change in total PANSS; non-responders)” value in assay [3] (SULT4A1-1 Negative) and in assay [3] (SULT4A1-1 Positive) were 32 and 7, respectively. In addition, the “Non Responder (number)” value in [3] worked out at 7. Also, the “Responder (number)” value in assay [3] turned out to be 3. The “Effect Size vs. FGA” value in assay [6] is −0.04.
Consider `Cc1nc2n(c(=O)c1CCN1CCC(c3noc4cc(F)ccc34)CC1)CCCC2` [Risperidone], for which the “HOSP (number of subjects hospitalized)” value in the assay with CATIE Caucasian subjects (SULT4A1-1 Positive) is 4; in the assay with CATIE Caucasian subjects (SULT4A1-1 negative) it was 16; with CATIE Caucasian subjects (Unsegmented), 20. Moreover, the figures for the “HOSP (rate of hospitalization)” value in the assay on CATIE Caucasian subjects (SULT4A1-1 Positive), with CATIE Caucasian subjects (SULT4A1-1 negative) and with CATIE Caucasian subjects (Unsegmented) were “(11.1%)”, “(13%)” and “(12.6%)”, respectively. The “Effect Size vs. Placebo” value in assay [4] is on record as −0.59. Besides, in the assay with CATIE patients, the “Difference between survival (no hospitalization) rates of SULT4A1-1 negative and SULT4A1-1 positive patients” value is “not statistically significant”. In addition, the “Mean Difference in Total PANSS Score, Olanzapine vs. labelled drug” value in [5] is −1.9. Also, the figures for the “Nonresponders (number)” value in assay [7] (SULT4A1-1 Negative) and in [7] (SULT4A1-1 Positive) were 8 and 1, respectively. For the same molecule, the “Responders (number)” value is given as 4 in assay [7] (SULT4A1-1 Negative) and 0 in [7] (SULT4A1-1 Positive). The “% Responders” value in assay [7] (SULT4A1-1 Positive) worked out at 0%. The “≦−20% (number of individuals; responders)” value turned out to be 7 in assay [1] (SULT4A1-1 Negative) and 3 in [1] (SULT4A1-1 Positive). Besides, the “≧−20% (number of individuals; non-responders)” value in assay [1] (SULT4A1-1 Negative) was 34; in assay [1] (SULT4A1-1 Positive) it was 2. Also, the Responders in [1] (SULT4A1-1 Positive, change in total PANSS ≦−20%) is listed as 60%. The “Time to discontinuation” value is recorded as 11.3 Months in assay [2] (SULT4A1-1 Negative) and 8.0*** Months in assay [2] (SULT4A1-1 Positive). The “Effect Size vs. FGA” value in assay [6] is on record as −0.25.
